{
  "source": "patent US4640799A",
  "about": "“Carbapenem antibiotics” (priority 1985, dated 1987)",
  "data": [
    {"system": "S. aureus A-9606", "assay": "Protective effect in the intramuscular treatment of infected mice", "assay_type": "in vivo", "conditions": "Staphylococcus aureus, A9606, im, i.m. 0 and 2 h postinfection, i.p. challenge ~9 × 10^7 (Ex. 4 and 5), read-out: PD50/treatment", "method": "Treatment Schedule: *For compound of Ex. 2, mice were infected i.p. with\nA20481. For compounds of Ex. 4 and 5, mice were infected i.p. with\n(A9843A). Mice were treated i.m. with drugs 0 and 2 h postinfection.", "units": {"ED50": "mg/kg"}, "values": [
      {"smiles": "C[C@@H](O)[C@H]1C(=O)N2C(C(=O)[O-])=C(SCC[N+]3(C)CCSCC3)C[C@H]12", "note": "[Ex. 2, 3-[2-(N-methyl-thiomorpholinium)ethylthio]-6α-[1'-(R)-hydroxyethyl]-7-oxo-1-azabicyclo[3.2.0]-hept-2-ene-2-carboxylate]", "ED50": 0.72},
      {"smiles": "C[C@@H](O)[C@H]1C(=O)N2C(C(=O)[O-])=C(SCC[N+]3(C)CC[S+]([O-])CC3)C[C@H]12", "note": "(single isomer, unassigned) [Ex. 5 comp. A]", "ED50": 1.2},
      {"smiles": "C[C@@H](O)[C@H]1C(=O)N2C(C(=O)[O-])=C(SCC[N+]3(C)CCN(C)CC3)C[C@H]12", "note": "[Ex. 4, (5R,6S)3-[2-(1,4-dimethyl-1-piperazinium)ethylthio]-6-[1-(R)-hydroxyethyl]-7-oxo-1-azabicyclo[3.2.0]hept-2-ene-2-carboxylate]", "ED50": 1.6}
    ]}
  ]
}
